Source: PMC6631119, “Nasal Administration and Plasma Pharmacokinetics of Parathyroid Hormone Peptide PTH 1-34 for the Treatment of Osteoporosis” (Pharmaceutics, 2019)
Like-named read-outs stand apart in the source and are kept apart here.

How the values were obtained:
[1] = Healthy human volunteer plasma pharmacokinetics of PTH 1-34 (open cross-over, ELISA); format: in vivo
Experimental: An open cross-over clinical IMP (investigative medicinal product) study was conducted in seven healthy female subjects aged over 55 years (mean age 67.7, range 58 to 81 years). Each participant provided informed consent in accordance with ethical committee requirements and good clinical practice. Pre-study screening assessments were carried out within 21 days of the participants receiving their first dose (Supplementary Materials: Section S1). Inclusion and exclusion criteria were applied (Supplementary Materials: Section S2). Participants were admitted to the study centre on the morning of dosing, having abstained from alcohol and smoking for at least 24 h previously and fasted from midnight. Participants were given a light meal on arrival. A cannula was then positioned in the participant’s arm or hand to facilitate the collection of blood samples. The pre-dose sample was taken. Participants received a single subcutaneous injection of 20 μg teriparatide into the abdomen at their first trial visit. Following a seven day wash out period, each participant self-administered 90 μg PTH 1-34 from the nasal spray formulation using the Rexam SP270 nasal spray device; the patients had previously been trained in operation of the Rexam device. Any episodes of sneezing after administration of the nasal formulation were recorded. The nasal spray formulation contained Tc-99m-DTPA, 3–5 MBq per Rexam SP270 nasal spray dose, resulting in an effective radiation dose of less than 0.14 mSv to each participant.
Following either subcutaneous or intranasal dosing, 10 mL blood samples (Becton Dickinson sodium heparin) were taken at 5, 15, 30, 60 120, 180, 240, 300 and 360 min. After each sample was taken, the cannula was flushed with 10 mL 0.9% saline. Blood was stored on ice and centrifuged within 30 min to prepare plasma (4 °C, 1100–1300 g, 10 min). These samples were stored at −20 °C before dispatching to Simbec Research Ltd. (Merthyr Tydfil, UK) for quantification by validated ELISA, in compliance with The UK Good Laboratory Practice Regulations 1999 (Statutory Instrument No. 310 6) and subsequent amendment, OECD Principles of Good Laboratory Practice (Paris 1998) and EC Commission Directive 2004/10/EC of February 2004.
Pharmacokinetic data were analysed using Phoenix® WinNonlin® 5.1 (Certara USA, Inc., Princeton, NJ, USA) from quantified PTH 1-34 in the plasma, using recorded sampling times. Summary statistics (mean, median, SD, coefficient of variation [CV%], minimum, maximum, n) and the following plasma pharmacokinetic parameters were calculated: • Cmax • Tmax • Terminal half-life (t1/2) • AUC to 2 h (AUC0–2h) • AUC to last measured time point (AUClast) and corresponding Frel for nasal formulation

[2] = post-menopausal women with osteoporosis, 20 μg PTH 1-34 subcutaneous dose, reported by the manufacturers of the commercial formulation; cited from earlier work
[3] = healthy female volunteers aged over 55 y, single 20 μg teriparatide subcutaneous injection into abdomen (Forsteo pen), plasma ELISA, mean of n = 7

In the case of `CC[C@H](C)[C@H](NC(=O)[C@H](CCC(=O)O)NC(=O)[C@H](CO)NC(=O)[C@@H](NC(=O)[C@@H](N)CO)C(C)C)C(=O)N[C@@H](CCC(N)=O)C(=O)N[C@@H](CC(C)C)C(=O)N[C@@H](CCSC)C(=O)N[C@@H](Cc1cnc[nH]1)C(=O)N[C@@H](CC(N)=O)C(=O)N[C@@H](CC(C)C)C(=O)NCC(=O)N[C@@H](CCCCN)C(=O)N[C@@H](Cc1cnc[nH]1)C(=O)N[C@@H](CC(C)C)C(=O)N[C@@H](CC(N)=O)C(=O)N[C@@H](CO)C(=O)N[C@@H](CCSC)C(=O)N[C@@H](CCC(=O)O)C(=O)N[C@@H](CCCN=C(N)N)C(=O)N[C@H](C(=O)N[C@@H](CCC(=O)O)C(=O)N[C@@H](Cc1c[nH]c2ccccc12)C(=O)N[C@@H](CC(C)C)C(=O)N[C@@H](CCCN=C(N)N)C(=O)N[C@@H](CCCCN)C(=O)N[C@@H](CCCCN)C(=O)N[C@@H](CC(C)C)C(=O)N[C@@H](CCC(N)=O)C(=O)N[C@@H](CC(=O)O)C(=O)N[C@H](C(=O)N[C@@H](Cc1cnc[nH]1)C(=O)N[C@@H](CC(N)=O)C(=O)N[C@@H](Cc1ccccc1)C(=O)O)C(C)C)C(C)C` [PTH 1-34, PTH 1-34 acetate], the F rel ([1]; female, plasma, inhaled or intranasal, 90 ug, human, 90 μg intranasal vs 20 μg subcutaneous, all seven subjects included in the calculation, read-out: bioavailability after intranasal dosing compared to subcutaneous injection of Forsteo) is reported as 0.26%, the Cmax [1, 3] is reported as 0.253 ng/mL and the t½ [1, 3] is reported as 65 min. The “bioavailability after intranasal dosing compared to subcutaneous injection of Forsteo” value ([1]; human, 90 μg intranasal vs 20 μg subcutaneous, only the subjects with measurable plasma concentrations) was “approximately 1%”, the Tmax ([1]; human, inhaled or intranasal, 90 ug, healthy female volunteers aged over 55 y, single 90 μg PTH 1-34 intranasal liquid spray with 7.5% w/v Solutol HS15 (Rexam SP270), plasma ELISA, mean of n = 7, not detectable in 5 of 7) was 9 min and the Cmax ([1]; human, inhaled or intranasal, 90 ug, healthy female volunteers aged over 55 y, single 90 μg PTH 1-34 intranasal liquid spray with 7.5% w/v Solutol HS15 (Rexam SP270), plasma ELISA, mean of n = 7, not detectable in 5 of 7, read-out: Cmax) was 0.005 ng/mL. For the same molecule, the Cmax [2] was roughly 0.15 ng/mL and the elimination half-life [2] was “approximately 1 h”.
